US20240270758A1, “PYRIDINO-OR PYRIMIDO-CYCLIC COMPOUND, PREPARATION METHOD THEREFOR AND MEDICAL USE THEREOF” (Genfleet Therapeutics (Shanghai) Inc., priority 2021, published 2024)
Values belong to the compound of their own block, whether it stands above or below them.

Experiments:
[1] = target: KRAS^G12D mutant protein binding to RBD region fragment of RAF1 protein (Homo sapiens (Human), UniProt P01116, G12D); assay: KRAS-RAF1 binding assay (HTRF), KRAS G12D; conditions: His-KRAS^G12D, GST-RAF1-RBD, GTP
KRAS^G12D mutant protein binding to RBD region fragment of RAF1 protein, sequence (P01116-2 other isoform, or with tags, fused parts or gaps G12D): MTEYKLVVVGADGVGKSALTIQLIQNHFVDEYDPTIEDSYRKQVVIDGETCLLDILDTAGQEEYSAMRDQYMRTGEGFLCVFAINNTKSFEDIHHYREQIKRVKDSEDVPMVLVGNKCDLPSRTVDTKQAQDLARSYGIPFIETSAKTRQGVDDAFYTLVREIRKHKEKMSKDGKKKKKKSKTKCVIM
Procedure: (§1) GST-RAF1-RBD was purchased from BPS Bioscience; Cat. NO.: 100519; KRAS^G12D was purchased from BPS Bioscience; Cat. NO.: 100623; KRAS^wt was purchased from Reactionbiology; GTP was purchased from Sigma; Cat. NO.: G8877; Mab Anti GST-XL665 was purchased from cisbio; Cat. NO.: 61GSTXLF; Eu-W1024-anti-6×HIS was purchased from PE; Cat. NO.: AD0111; ProxiPlate-384-Plates was purchased from PerkinElmer; Cat. NO.: 6008289; DMSO was purchased from VWR AMRESCO; Cat. NO.: 0231-500ML; microplate reader was purchased from PerkinElmer; Cat. NO.: Envison;
(§2) This experiment is intended to investigate the inhibitory effect of compounds on the binding of KRAS^G12D mutant protein or KRAS^Wt (wild type) protein to fragments of the RBD region fragment of RAF1 protein. A 500×3-fold gradient concentration stock of compound was prepared using DMSO and diluted 50-fold into a 10× stock of compound using reaction buffer. To the reaction wells of an ELISA plate (ProxiPlate-384-Plates), was first added 3 µL of His-KRAS^G12D protein or KRAS^wt protein, then added 1 μL of 200 µM GTP and incubated for 30 min, then added 2 μL of 10× compound or reaction buffer with 2% DMSO (positive control) and incubated for 30 min, then added 4 μL of GST-RAF1-RBD protein or reaction buffer (negative control) and incubated for 15 min, then added […] anti-His antibody and XL665-labeled anti-GST antibody mixed well in advance and incubated for 60 min before reading HTRF signal by microplate reader. The inhibition ratio of compounds on KRAS protein (G12D mutant or wild type) and RAF1 binding was calculated IR (%)=(positive control signal-compound well signal)/(positive control signal-negative control signal)×100% and IC50 values were calculated by fitting compound concentrations and corresponding inhibition ratios using the Prism 8 four-parameter method. […] While the inhibition IC50 values of the compounds on the binding of KRAS^wt (wild type) protein to the RBD region fragment of RAF1 protein was more than 40 nM or 100 nM, or more than 500 nM, or even more than 1 μM or 2 μM.

[2] = target: KRAS^wt (wild type) protein binding to RBD region fragment of RAF1 protein (Homo sapiens (Human), UniProt P01116); assay: KRAS-RAF1 binding assay (HTRF), KRAS wild type; conditions: GST-RAF1-RBD, GTP
KRAS^wt (wild type) protein binding to RBD region fragment of RAF1 protein, sequence (P01116-2 other isoform, or with tags, fused parts or gaps): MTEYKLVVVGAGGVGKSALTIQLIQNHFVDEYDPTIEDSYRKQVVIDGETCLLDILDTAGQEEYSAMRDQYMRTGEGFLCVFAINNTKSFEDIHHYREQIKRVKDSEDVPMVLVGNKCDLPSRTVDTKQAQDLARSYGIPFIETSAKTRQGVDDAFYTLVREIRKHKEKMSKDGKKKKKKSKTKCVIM
Procedure: as §1, §2

[3] = system: p-ERK in AGS cells (KRAS^G12D mutation); assay: Cell p-ERK detection assay; format: cell-based, human; conditions: 3 h incubation, HTRF
Procedure: AGS was purchased from ATCC; Cat. NO.: CRL-1739; F12K was purchased from Gibco; Cat. NO.: 21127-022; FBS was purchased from Gibco; Cat. NO.: 10099-141C; Trypsin (containing EDTA) was purchased from Gibco; Cat. NO.: 25200-072; DMSO was purchased from VWRAMRESCO; Cat. NO.: 0231-500ML; 96-well cell culture plate was purchased from Corning; Cat. NO.: 3599; An white background opaque 96-well plate was purchased from Cisbio; Cat. NO.: 66PL96025; Advance ERK phospho-T202/Y204 kit was purchased from Cisbio; Cat. NO.: 64AERPEH; Cell Counters were purchased from CHEMOMETEC; Model NO.: NC-200; microplate reader was purchased from PerkinElmer; Model NO.: Envison.
AGS is an endogenous human gastric adenocarcinoma cell line containing KRAS^G12D mutation, cultured in F12K+10% FBS medium. On the first day of the experiment, cells in the logarithmic growth phase were taken, digested with trypsin (containing EDTA), collected, and counted, and approximately 20,000 cells/well were inoculated in 96-well cell culture plates and cultured overnight in a 5% CO2 incubator. A 1000×3.16-fold gradient concentration stock of the compound was prepared using DMSO, diluted 200-fold into a 5× compound stock using the medium described above, and a 5× compound stock was added to each cell culture well the day after cell inoculating at a final concentration of 1× and a DMSO content of 0.1%. DMSO was used as an experimental control. After the compound was added and the incubation was continued for 3 h, the medium in the culture wells was removed, […] of cell lysis solution (from Advance ERK phospho-T202/Y204 kit, the same below) was added to each well, mixed well and incubated for 30 min, then […] of the mixed solution was transferred to a white background opaque 96-well plate, and another well was taken as a blank well with adding […] of cell lysis solution. After the transfer, […] of p-ERK HTRF antibody mixed solution (from Advance ERK phospho-T202/Y204 kit) was added to each well, after incubation for 4 h, HTRF fluorescence value (RLU) was read by a microplate reader, and p-ERK level inhibition ratio of the compound was calculated IR (%)=(RLU control-RLU compound)/(RLU control-RLU blank)×100%, compound concentration and corresponding cell p-ERK level inhibition ratio were fitted using Prism 8 four-parameter method, and IC50 value was calculated.

[4] = system: AGS cells (KRAS^G12D mutation); assay: Cell proliferation inhibition assay (3D, CellTiter-Glo), AGS; format: cell-based, human; conditions: 3D cell model, 5 days
Excerpt: (§3) AsPC-1 was purchased from ATCC; Cat. NO.: CRL-1682; AGS was purchased from ATCC; Cat. NO.: CRL-1739; RPMI1640 was purchased from Gibco; Cat. NO.: 11875-093 2235123; F12K was purchased from Gibco; Cat. NO.: 21127-022; FBS was purchased from Gibco; Cat. NO.: 10099-141C; Trypsin (containing EDTA) was purchased from Gibco; Cat. NO.: 25200-072; CellTiter Glo-3D was purchased from Progema; Cat. NO.: G9683; 384-well sphere plates were purchased from coming; Cat. NO.: 3830; White background opaque 384-well plates were purchased from coming; Cat. NO.: 3570; Cell Counters were purchased from CHEMOMETEC; Model NO.: NC-200; microplate reader was purchased from PerkinElmer; Model NO.: Envison;
(§4) AsPC-1 is an endogenous human pancreatic cancer cell containing KRAS^G12D mutation, which is cultured in RPMI-1640 medium containing 10% FBS; AGS human gastric cancer cell line containing KRAS^G12D mutation, cultured in F-12K medium containing 10% FBS. Cells in the logarithmic growth phase were taken, digested with trypsin (containing EDTA), harvested and counted, and inoculated with 800 AsPC-1 cells/well or 400 AGS cells/well, respectively, in 384-well sphere plates and cultured overnight at 5% C02 to establish a 3D cell model. A 3.16-fold gradient concentration stock solution of 1000× compound was prepared using DMSO, diluted 100-fold into a 10× compound stock solution using media, and a 10× compound stock solution was added to each cell culture well the day after cell inoculating at a final concentration of 1× with a DMSO content of 0.1%. DMSO was used as an experimental control (control) and culture medium as a blank control (blank). After the addition of compounds, the cells were cultured for 5 days. […] CellTiter-Glo working solution was added to each well, mixed well, and incubated for 30 min. After standing for 30 min at room temperature, 40 μl of the mixed solution was transferred to a white background opaque 384-well plate. Luminescence chemiluminescence value was read on a microplate reader, and the cell proliferation inhibition ratio was calculated, IR (%)=(RLU control-RLU compound)/(RLU control-RLU blank)×100%. XLFit four-parameter method was used to fit the gradient dilution concentration of compounds and the corresponding cell proliferation inhibition ratio, and the IC50 value was calculated. […] Results for exemplary of the example compounds are shown in Table 3 below. - indicates not detected.

[5] = system: AsPC-1 cells (KRAS^G12D mutation); assay: Cell proliferation inhibition assay (3D, CellTiter-Glo), AsPC-1; format: cell-based, human; conditions: 3D cell model, 5 days
Excerpt: as §3, §4

Compound: C#Cc1c(F)ccc2cc(O)cc(-c3ncc4c(N5C[C@H]6CC[C@@H](C5)N6)nc(OCC56CCCN5CC(=C)C6)nc4c3F)c12 (some centres unmarked) [Example Z3]
IC50 [1]: 16.2 nM
IC50 [2]: 64.5 nM
IC50 [3]: 2.11 nM
IC50 [4]: 3 nM
IC50 [5]: 16 nM

Compound: C#Cc1cccc2cc(O)cc(-c3ncc4c(N5C[C@H]6CC[C@@H](C5)N6)nc(OCC56CCCN5CC(=CF)C6)nc4c3F)c12 (stereo partly drawn) [Example Z5, 4-(4-((1R,5S)-3,8-diazabicyclo[3.2.1]octan-3-yl)-8-fluoro-2-((2-(fluoromethylene)tetrahydro-1H-pyrrolizin-7a(5H)-yl)methoxy)pyrido[4,3-d]pyrimidin-7-yl)-5-ethynylnaphthalen-2-ol]
IC50 [1]: 36.3 nM
IC50 [2]: 43.7 nM
IC50 ([3]; Homo sapiens, AGS, 3 h): 1.16 nM
IC50 ([4]; Homo sapiens, AGS, 120 h): 4.5 nM
IC50 ([5]; Homo sapiens, ASPC1, 120 h): 29.4 nM

Compound: C#Cc1c(F)ccc2cc(O)cc(-c3ncc4c(N5C[C@H]6CC[C@@H](C5)N6)nc(OC[C@]56CCCN5CC(=C)C6)nc4c3F)c12 (single isomer, unassigned) [Example Z13]
IC50 [1]: 53.6 nM
IC50 [2]: 101 nM
IC50 ([3]; Homo sapiens, AGS, 3 h): 11 nM
IC50 ([4]; Homo sapiens, AGS, 120 h): 13 nM
IC50 ([5]; Homo sapiens, ASPC1, 120 h): 67.2 nM

Compound: C=C1CN2CCCC2(COc2nc(N3C[C@H]4CC[C@@H](C3)N4)c3cnc(-c4cc(O)cc5cccc(CC)c45)c(F)c3n2)C1 (stereo partly drawn) [Example Z11, 4-(4-((1R,5S)-3,8-diazabicyclo[3.2.1]octan-3-yl)-8-fluoro-2-((2-methylenetetrahydro-1H-pyrrolizin-7a(5H)-yl)methoxy)pyrido[4,3-d]pyrimidin-7-yl)-5-ethylnaphthalen-2-ol]
IC50 [1]: 45.9 nM
IC50 [2]: 263 nM
IC50 ([3]; Homo sapiens, AGS, 3 h): 4.91 nM
IC50 ([4]; Homo sapiens, AGS, 120 h): 2.5 nM
IC50 ([5]; Homo sapiens, ASPC1, 120 h): 50.6 nM

Compound: C#Cc1cccc2cc(O)cc(-c3ncc4c(N5C[C@H]6C=C[C@@H](C5)N6)nc(OCC56CCCN5CCC6)nc4c3F)c12 [Example Z4, 4-(4-((1R,5S)-3,8-diazabicyclo[3.2.1]oct-6-en-3-yl)-8-fluoro-2-((tetrahydro-1H-pyrrolizin-7a(5H)-yl)methoxy)pyrido[4,3-d]pyrimidin-7-yl)-5-ethynylnaphthalen-2-ol]
IC50 [1]: 20.6 nM
IC50 [2]: 393 nM
IC50 ([3]; Homo sapiens, AGS, 3 h): 47.1 nM
IC50 ([4]; Homo sapiens, AGS, 120 h): 360 nM

Compound: C#Cc1cccc2cccc(-c3ncc4c(N5C[C@H]6C=C[C@@H](C5)N6)nc(OCC56CCCN5CCC6)nc4c3F)c12 [Example Z6, 4-((1R,5S)-3,8-diazabicyclo[3.2.1]oct-6-en-3-yl)-7-(8-ethynylnaphthalen-1-yl)-8-fluoro-2-((tetrahydro-1H-pyrrolizin-7a(5H)-yl)methoxy)pyrido[4,3-d]pyrimidine]
IC50 [1]: 51.6 nM
IC50 [2]: > 10000 nM
IC50 ([3]; Homo sapiens, AGS, 3 h): 426 nM
IC50 ([4]; Homo sapiens, AGS, 120 h): 815 nM

IC50 [1]: 256 nM
IC50 [2]: 2610 nM
Compound: C#Cc1cccc2cc(O)cc(-c3ncc4c(N5CC6CCC(C5)C6N)nc(OCC56CCCN5CCC6)nc4c3F)c12 (centres unmarked) [Example Z1]

IC50 [1]: 186 nM
IC50 [2]: 788 nM
Compound: C#Cc1cccc2cc(O)cc(-c3ncc4c(N5CC6CCC(C5)C6N)nc(OCC56CCCN5CCC6)nc4c3F)c12 (centres unmarked) [Example Z2]

Compound: C#Cc1cccc2cc(O)cc(-c3ncc4c(N5C[C@@H]6N[C@H](C5)[C@@H]5C[C@@H]56)nc(OCC56CCCN5CCC6)nc4c3F)c12 [Example Z10, 5-ethynyl-4-(8-fluoro-2-((tetrahydro-1H-pyrrolizin-7a(5H)-yl)methoxy)-4-((1R, 2S, 4R, 5S)-7,9-diazatricyclo[3.3.1.0^2,4]nonan-7-yl)pyrido[4,3-d]pyrimidin-7-yl)naphthalen-2-ol]
IC50 [1]: 62.9 nM
IC50 [2]: 119 nM
IC50 ([3]; Homo sapiens, AGS, 3 h): 215 nM

Compound: C#Cc1cccc2cc(O)cc(-c3ncc4c(N5C[C@H]6CC[C@@H](C5)N6)nc(OCC56CCCN5CC(=C(F)F)C6)nc4c3F)c12 (stereo partly drawn) [Example Z27, 4-(4-((1R,5S)-3,8-diazabicyclo[3.2.1]octan-3-yl)-2-((2-(difluoromethylene)tetrahydro-1H-pyrrolizine 7a(5H)-yl)methoxy)-8-fluoropyrido[4,3-d]pyrimidin-7-yl)-5-ethynylnaphthalen-2-ol]
IC50 ([3]; Homo sapiens, AGS, 3 h): 1.1 nM
IC50 ([4]; Homo sapiens, AGS, 120 h): 3.1 nM
IC50 ([5]; Homo sapiens, ASPC1, 120 h): 6.9 nM

Compound: C#Cc1cccc2cc(O)cc(-c3ncc4c(N5C[C@H]6CC[C@@H](C5)N6)nc(OCC56CC(=C)CN5CCC65CC5)nc4c3F)c12 (stereo partly drawn) [Example Z106, 4-(4-((1R,5S)-3,8-diazabicyclo[3.2.1]octan-3-yl)-8-fluoro-2-((6′-methylenetetrahydrospiro[cyclopropane-1,1′-pyrrolizin]-7a′(5′H)-yl)methoxy)pyrido[4,3-d]pyrimidin-7-yl)-5-ethynylnaphthalen-2-ol]
IC50 ([3]; Homo sapiens, AGS, 3 h): 1.36 nM
IC50 ([4]; Homo sapiens, AGS, 120 h): 4.6 nM
IC50 ([5]; Homo sapiens, ASPC1, 120 h): 14.7 nM
